According to patent EP1190708A1, “Medical use of substances” (Tinnitus Forschungs- und Entwicklungs GmbH, priority 2000, dated 2002):
pIC50: −log10 of the molar value.

Columns and labels:
[1] = test system: inhibitory postsynaptic currents (IPSC) in outer hair cells; experiment: Voltage-clamp recording of inhibitory postsynaptic currents in outer hair cells of the organ of Corti preparation; format: cell-based, Wistar rats; parameters: inhibition of postsynaptic currents (reversibility): dose or concentration left out as unconfirmed
Procedure: Organs of Corti were dissected from the cochleae of Wistar rats (11-24 days old) as described previously (Oliver, D. and Fakler, B. 1999. J. Physiol. (Lond.) 519 pt. 3, 791-800; Oliver, D., Klöcker, N., Schluck, J., Baukrowitz, T., Rup-persberg, J.P. and Fakler, B. 2000. Neuron 26, 591-601). The electrophysiology on OHCs was also described previously (Oliver, D. et al., 2000, see above).
In Fig 1B, postsynaptic currents were recorded from OHCs in voltage-clamp experiments when cells were held at -64 mV and the whole Corti preparation was superfused with high extracellular K^+ (150 mM) to depolarize the presynapse. Application of high K^+ and toxins as indicated by horizontal bars: current and time scaling as indicated.
In Fig 3, postsynaptic currents were recorded from outer hair cells (OHCs) in voltage-clamp experiments when cells were held at -64 mV and the whole Corti preparation was superfused with high extracellular K^+ to depolarize the presynapse. Application of high K^+ and toxins as indicated by horizontal bars: current and time scaling as indicated. […] This dose-dependent response determined for the IPSC in OHCs is illustrated in Fig. 3B.

[2] = target: T1, alpha9/alpha10 heteromeric acetylcholine receptors expressed in Xenopus oocytes (Rattus norvegicus, UniProt P43144+Q9JLB5); experiment: Voltage-clamp recording of current responses to acetylcholine in oocytes expressing alpha9/alpha10 subunits; format: cell-based
T1 construct: expressed in transfected cells; host or cells: Xenopus laevis oocytes injected with in vitro synthesised mRNA
Procedure: In vitro mRNA synthesis and oocyte injections were performed as previously described (Fakler, B., Brandle, U., Glowatzki, E., Weidemann, S., Zenner, H.P. and Ruppersberg, J.P. 1995. Cell 80, 149-154; Oliver, D. et al., 2000, see above). The electrophysiology on oocytes was also performed as described previously (Oliver, D. et al., 2000, see above).
For further characterization of strychnine treatment on the nAChR, the mRNA of alpha9/alpha10 subunits of the acetylcholine receptor were injected in oocytes of Xexopus laevis.
After expression of these subunits, they were investigated by treatment with strychnine in voltage-clamp experiment. The cells were held at -30 mV. Current and time scaling are as indicated. As is shown in Fig. 2, similar results were obtained as in Fig. 1. Consistent with the model shown above, the current responses at the acetylcholine receptor could be blocked reversibly by application with the acetylcholine blocker strychnine.
For further characterization of memantine treatment on the neuronal acetylcholine receptor (nAChR), the mRNA of alpha9-/alpha10 subunits of the acetylcholine receptor were injected in oocytes of Xexopus laevis. After expression of that subunits, these subunits were investigated by treatment with memantine in voltage-clamp experiment. The cells were held at -30 mV. Current and time scaling are as indicated. As is shown in Fig. 4, similar results were obtained as in Fig. 3. In this experiment the polarization potential of the cells was meassured after application of 100 µM acetylcholine in the presence or absence of memantine. Consistent with the results obtained in Fig. 3, the current responses at the acetylcholine receptor could be blocked by application with memantine. A halfmaximal inhibition occurs at concentrations of approximately 1 µM, as is illustrated in Figur 4B.

T1 sequence (P43144 26-479): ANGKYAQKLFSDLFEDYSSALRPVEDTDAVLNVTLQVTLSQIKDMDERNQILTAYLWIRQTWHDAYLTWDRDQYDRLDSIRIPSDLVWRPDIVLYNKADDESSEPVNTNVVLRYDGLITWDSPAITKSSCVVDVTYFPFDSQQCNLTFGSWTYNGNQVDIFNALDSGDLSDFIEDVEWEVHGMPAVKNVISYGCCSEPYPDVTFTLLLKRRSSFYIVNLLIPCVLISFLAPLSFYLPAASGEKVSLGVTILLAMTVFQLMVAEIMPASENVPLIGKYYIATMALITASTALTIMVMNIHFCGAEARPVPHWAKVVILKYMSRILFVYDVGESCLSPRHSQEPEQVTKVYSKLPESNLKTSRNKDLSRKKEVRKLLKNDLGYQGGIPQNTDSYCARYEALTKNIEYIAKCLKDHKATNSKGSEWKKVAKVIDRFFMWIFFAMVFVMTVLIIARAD
T1 sequence (Q9JLB5 25-447): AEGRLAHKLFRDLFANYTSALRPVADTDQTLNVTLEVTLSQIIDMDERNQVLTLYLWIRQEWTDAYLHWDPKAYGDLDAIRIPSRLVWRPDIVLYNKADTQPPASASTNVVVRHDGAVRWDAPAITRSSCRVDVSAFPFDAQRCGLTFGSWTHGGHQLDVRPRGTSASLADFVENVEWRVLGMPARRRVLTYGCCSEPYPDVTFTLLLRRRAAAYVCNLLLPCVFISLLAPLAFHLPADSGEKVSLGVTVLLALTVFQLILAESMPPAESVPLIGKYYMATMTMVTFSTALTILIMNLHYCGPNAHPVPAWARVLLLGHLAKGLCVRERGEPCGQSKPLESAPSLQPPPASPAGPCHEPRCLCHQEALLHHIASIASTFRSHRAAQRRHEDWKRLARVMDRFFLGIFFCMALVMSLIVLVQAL

SMILES	complete inhibition of postsynaptic currents at (concentration) [1] [nM]	complete inhibition of current responses at the acetylcholine receptor at (concentration) [2] [µM]	reversibility of block of the receptor [2]	inhibition of postsynaptic currents (reversibility) ([1]; OHCs held at -64 mV, dose-dependent response, Fig. 3)	pIC50 ([1]; Rattus norvegicus, iPSC, OHCs held at -64 mV, high extracellular K+, Fig. 3B)	pIC50 [2]
O=C1C[C@@H]2OCC=C3CN4CC[C@]56c7ccccc7N1[C@H]5[C@H]2[C@H]3C[C@H]46 [strychnine]	100	1	reversible block of the receptor	–	–	–
CC12CC3CC(C)(C1)CC(N)(C3)C2 [memantine]	–	–	–	reversibly inhibited	~4.78	~6.00
